Each structure is given as a SMILES string. pIC50: −log10 of the molar value. A value given as a limit tells only on which side of the number the result lay.

The target of the first experiment is T1, Recombinant human renin (Homo sapiens, UniProt P00797).
T1 construct: isolate the active form (residues 67-406); made in house; host or cells: FreeStyle 293-F cells, transient expression of pcDNA3.1(+)/hREN
T1 sequence (P00797 67-406): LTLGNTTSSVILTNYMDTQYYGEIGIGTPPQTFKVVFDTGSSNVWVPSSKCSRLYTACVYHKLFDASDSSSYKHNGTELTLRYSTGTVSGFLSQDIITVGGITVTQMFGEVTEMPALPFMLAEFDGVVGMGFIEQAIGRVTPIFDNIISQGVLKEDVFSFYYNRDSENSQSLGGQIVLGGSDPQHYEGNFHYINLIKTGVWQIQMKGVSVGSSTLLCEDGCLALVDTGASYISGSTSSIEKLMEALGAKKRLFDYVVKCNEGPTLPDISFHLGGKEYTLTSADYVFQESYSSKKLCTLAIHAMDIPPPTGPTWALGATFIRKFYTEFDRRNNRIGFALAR
The experiment is described as follows: In vitro enzymatic activity assay of renin inhibitors (fluorescence, QXL520/HiLyteFluo488 peptide substrate). The class given is biochemical.
Details: not given
Take `Cc1ccccc1-n1c(-c2ccccc2)c(C(=O)N2CCNCC2)n(CCNC(=O)Oc2ccccc2)c1=O` [Example 248, Phenyl 2-(2-oxo-4-phenyl-5-(piperazine-1-carbonyl)-3-o-tolyl-2,3-dihydro-1H-imidazol-1-yl)ethylcarbamate]: the pIC50 (commonly the negative decadic logarithm of the IC50, by convention in mol/L) was below 6.00.
With `Cc1ccccc1-n1c(-c2ccccc2)c(C(=O)N2CCNCC2)n(CCCNC(=O)Oc2ccccc2)c1=O` [Example 252, Phenyl 3-(2-oxo-4-phenyl-5-(piperazine-1-carbonyl)-3-o-tolyl-2,3-dihydro-1H-imidazol-1-yl)propylcarbamate], the pIC50 was below 6.00.

The same experiment, now with this note: recombinant human renin 3 nM, 1 μM substrate, pre-incubated 10 minutes at 37° C., incubation one hour, pH 7.4, 5% DMSO; read-out: IC50 of Exemplified Compounds Against Renin.
With `Cc1ccccc1-n1c(-c2ccccc2)c(C(=O)N2CCNCC2)n(CCCNC(=O)c2cccc(Cl)c2)c1=O` [Example 242, 3-Chloro-N-(3-(2-oxo-4-phenyl-5-(piperazine-1-carbonyl)-3-o-tolyl-2,3-dihydro-1H-imidazol-1-yl)propyl)benzamide], the pIC50 is below 6.00.
On to `Cc1ccccc1-n1c(-c2ccccc2)c(C(=O)N2CCNCC2)n(CCCNC(=O)c2ccc(Cl)cc2)c1=O` [Example 243, 4-Chloro-N-(3-(2-oxo-4-phenyl-5-(piperazine-1-carbonyl)-3-o-tolyl-2,3-dihydro-1H-imidazol-1-yl)propyl)benzamide], for which the pIC50 was below 6.00.
As for `COc1ccccc1C(=O)NCCCn1c(C(=O)N2CCNCC2)c(-c2ccccc2)n(-c2ccccc2C)c1=O` [Example 244, 2-Methoxy-N-(3-(2-oxo-4-phenyl-5-(piperazine-1-carbonyl)-3-o-tolyl-2,3-dihydro-1H-imidazol-1-yl)propyl)benzamide], the pIC50 is below 6.00.
On the same count and under the same terms, the result for `COc1ccc(C(=O)NCCCn2c(C(=O)N3CCNCC3)c(-c3ccccc3)n(-c3ccccc3C)c2=O)cc1` [Example 245, 4-Methoxy-N-(3-(2-oxo-4-phenyl-5-(piperazine-1-carbonyl)-3-o-tolyl-2,3-dihydro-1H-imidazol-1-yl)propyl)benzamide] reads below 6.00; that for `Cc1ccccc1-n1c(-c2ccccc2)c(C(=O)N2CCNCC2)n(CCCNC(=O)C(C)C)c1=O` [Example 246, N-(3-(2-oxo-4-phenyl-5-(piperazine-1-carbonyl)-3-o-tolyl-2,3-dihydro-1H-imidazol-1-yl)propyl)isobutyramide], below 6.00; that for `Cc1ccccc1-n1c(-c2ccccc2)c(C(=O)N2CCNCC2)n(CCCNC(=O)C2CCCCC2)c1=O` [Example 247, N-(3-(2-oxo-4-phenyl-5-(piperazine-1-carbonyl)-3-o-tolyl-2,3-dihydro-1H-imidazol-1-yl)propyl)cyclohexanecarboxamide], below 6.00.
For `COC(=O)NCCn1c(C(=O)N2CCNCC2)c(-c2ccccc2)n(-c2ccccc2C)c1=O` [Example 249, Methyl 2-(2-oxo-4-phenyl-5-(piperazine-1-carbonyl)-3-o-tolyl-2,3-dihydro-1H-imidazol-1-yl)ethylcarbamate], the pIC50 was below 6.00.
As to `CCOC(=O)NCCn1c(C(=O)N2CCNCC2)c(-c2ccccc2)n(-c2ccccc2C)c1=O` [Example 250, Ethyl 2-(2-oxo-4-phenyl-5-(piperazine-1-carbonyl)-3-o-tolyl-2,3-dihydro-1H-imidazol-1-yl)ethylcarbamate], the pIC50 is below 6.00.
As to `Cc1ccccc1-n1c(-c2ccccc2)c(C(=O)N2CCNCC2)n(CCNC(=O)OCc2ccccc2)c1=O` [Example 251, Benzyl 2-(2-oxo-4-phenyl-5-(piperazine-1-carbonyl)-3-o-tolyl-2,3-dihydro-1H-imidazol-1-yl)ethylcarbamate], the pIC50 was below 6.00.
Same read-out and setting: as for `COC(=O)NCCCn1c(C(=O)N2CCNCC2)c(-c2ccccc2)n(-c2ccccc2C)c1=O` [Example 253, Methyl 3-(2-oxo-4-phenyl-5-(piperazine-1-carbonyl)-3-o-tolyl-2,3-dihydro-1H-imidazol-1-yl)propylcarbamate], the figure is below 6.00; as for `CCOC(=O)NCCCn1c(C(=O)N2CCNCC2)c(-c2ccccc2)n(-c2ccccc2C)c1=O` [Example 254, Ethyl 3-(2-oxo-4-phenyl-5-(piperazine-1-carbonyl)-3-o-tolyl-2,3-dihydro-1H-imidazol-1-yl)propylcarbamate], below 6.00; as for `Cc1ccccc1-n1c(-c2ccccc2)c(C(=O)N2CCNCC2)n(CCCNC(=O)OCc2ccccc2)c1=O` [Example 255, Benzyl 3-(2-oxo-4-phenyl-5-(piperazine-1-carbonyl)-3-o-tolyl-2,3-dihydro-1H-imidazol-1-yl)propylcarbamate], below 6.00.

These data come from patent US8148367B2 (Takeda Pharmaceutical Company Limited, priority 2008, dated 2012).
